Data reported in US10954232B2, “Pyrazole derivative as ALK5 inhibitor and uses thereof” (HANMI PHARMACEUTICAL CO., LTD., priority 2016, dated 2021).

Target: T1, ALK5 kinase (Homo sapiens, UniProt P36897)
T1 construct: GST; purchased Thermo Fisher Scientific Solutions
T1 sequence (P36897 34-503): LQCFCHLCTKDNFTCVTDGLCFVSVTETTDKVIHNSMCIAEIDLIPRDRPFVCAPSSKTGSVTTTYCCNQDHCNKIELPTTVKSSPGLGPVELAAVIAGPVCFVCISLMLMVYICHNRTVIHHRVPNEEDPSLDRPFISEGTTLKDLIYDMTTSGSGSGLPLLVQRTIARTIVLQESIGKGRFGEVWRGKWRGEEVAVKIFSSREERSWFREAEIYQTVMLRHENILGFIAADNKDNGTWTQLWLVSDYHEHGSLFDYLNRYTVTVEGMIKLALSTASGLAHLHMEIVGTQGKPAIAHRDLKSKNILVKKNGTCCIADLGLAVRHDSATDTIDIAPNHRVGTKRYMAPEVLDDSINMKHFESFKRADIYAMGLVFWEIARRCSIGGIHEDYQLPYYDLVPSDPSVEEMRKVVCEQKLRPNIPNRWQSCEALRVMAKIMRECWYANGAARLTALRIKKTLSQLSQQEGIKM
Assay: Activity inhibition test on ALK5 enzyme (LanthaScreen Eu binding kinase assay)
Conditions: kinase tracer 178, 60 minutes at room temperature
Outline: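 IC50 is the concentration giving 50% inhibition relative to control, taken from fluorescence after 60 min stirring at room temperature. Final mix held kinase 5 nM, Eu-GST binding antibody 2 nM and tracer 178 10 nM. Compounds were serially diluted from 1 μM to 0.0001 μM.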

IC50	SMILES
5 nM	COc1ccc(NC(=O)c2cc(-c3ccc4ncsc4c3)n(-c3cccc(C)n3)n2)cc1 [Example 1, 5-(benzo[d]thiazol-6-yl)-N-(4-methoxyphenyl)-1-(6-methylpyridin-2-yl)-1H-pyrazole-3-carboxyamide]
10 to 100 nM	Cc1cccc(NC(=O)c2cc(-c3ccc4ncsc4c3)n(-c3cccc(C)n3)n2)c1 [Example 19, 5-(benzo[d]thiazol-6-yl)-N-(3-tolyl)-1-(6-methylpyridin-2-yl)-1H-pyrazole-3-carboxyamide]
3.7 nM	Cc1cccc(-n2nc(C(=O)Nc3ccc(S(C)(=O)=O)cc3)cc2-c2ccc3ncnn3c2)n1 [Example 147, 5-([1,2,4]triazolo[1,5-α]pyridin-6-yl)-N-(4-(methylsulfonyl)phenyl)-1-(6-methylpyridin-2-yl)-1H-pyrazole-3-carboxyamide]
2.4 nM	Cc1cccc(-n2nc(C(=O)Nc3ccc(S(=O)(=O)O)cc3)cc2-c2ccc3ncsc3c2)n1 [Example 56, 4-(5-(benzo[d]thiazol-6-yl)-1-(6-methylpyridin-2-yl)-1H-pyrazole-3-carboxyamido)benzenesulfonic acid]
10 to 100 nM	Cc1ccc(NC(=O)c2cc(-c3ccc4ncnn4c3)n(-c3cccc(C)n3)n2)cc1 [Example 117, 5-([1,2,4]triazolo[1,5-α]pyridin-6-yl)-1-(6-methylpyridin-2-yl)-N-(p-tolyl)-1H-pyrazole-3-carboxyamide]
~100 nM	Cc1cccc(-n2nc(C(=O)Nc3ccc(CN4CCOCC4)cc3)cc2-c2ccc3nccnc3c2)n1 [Example 177, 1-(6-methylpyridin-2-yl)-N-(4-(morpholinomethyl)phenyl)-5-(quinoxalin-6-yl)-1H-pyrazole-3-carboxyamide]
13 nM	Cc1cccc(-n2nc(C(=O)NCc3ccccc3F)cc2-c2ccc3ncnn3c2)n1 [Example 155, 5-([1,2,4]triazolo[1,5-α]pyridin-6-yl)-N-(2-fluorobenzyl)-1-(6-methylpyridin-2-yl)-1H-pyrazole-3-carboxyamide]
4.6 nM	Cc1cccc(-n2nc(C(=O)Nc3ccc(F)nc3)cc2-c2ccc3ncnn3c2)n1 [Example 152, 5-([1,2,4]triazolo[1,5-α]pyridin-6-yl)-N-(6-fluoropyridin-3-yl)-1-(6-methylpyridin-2-yl)-1H-pyrazole-3-carboxyamide]
10 to 100 nM	Cc1cccc(-n2nc(C(=O)Nc3ccc(Cl)cc3)cc2-c2ccc3ncnn3c2)n1 [Example 129, 5-([1,2,4]triazolo[1,5-α]pyridin-6-yl)-N-(4-chlorophenyl)-1-(6-methylpyridin-2-yl)-1H-pyrazole-3-carboxyamide]
100 to 1000 nM	Cc1cccc(-n2nc(C(=O)Nc3ccc(C(F)(F)F)cc3)cc2-c2ccc3nccnc3c2)n1 [Example 180, 1-(6-methylpyridin-2-yl)-5-(quinoxalin-6-yl)-N-(4-(trifluoromethyl)phenyl)-1H-pyrazole-3-carboxyamide]
22 nM	Cc1cccc(-n2nc(C(=O)NCc3cccc(F)c3)cc2-c2ccc3ncnn3c2)n1 [Example 156, 5-([1,2,4]triazolo[1,5-α]pyridin-6-yl)-N-(3-fluorobenzyl)-1-(6-methylpyridin-2-yl)-1H-pyrazole-3-carboxyamide]
< 10 nM	Cc1cccc(-n2nc(C(=O)Nc3ccncc3)cc2-c2ccc3ncsc3c2)n1 [Example 64, 5-(benzo[d]thiazol-6-yl)-1-(6-methylpyridin-2-yl)-N-(pyridin-4-yl)-1H-pyrazole-3-carboxyamide]
4.1 nM	CNS(=O)(=O)c1ccc(NC(=O)c2cc(-c3ccc4ncsc4c3)n(-c3cccc(C)n3)n2)cc1 [Example 48, 5-(benzo[d]thiazol-6-yl)-1-(6-methylpyridin-2-yl)-N-(4-(N-methylsulfamoyl)phenyl)-1H-pyrazole-3-carboxyamide]
10 to 100 nM	Cc1cccc(-n2nc(C(=O)Nc3ccc(OC(F)(F)F)cc3)cc2-c2ccc3ncnn3c2)n1 [Example 101, 5-([1,2,4]triazolo[1,5-α]pyridin-6-yl)-1-(6-methylpyridin-2-yl)-N-(4-(trifluoromethoxy)phenyl)-1H-pyrazole-3-carboxyamide]
< 100 nM	Cc1cccc(-n2nc(C(=O)Nc3ccc(N(C)C)cc3)cc2-c2ccc3nccnc3c2)n1 [Example 170, N-(4-(dimethylamino)phenyl)-1-(6-methylpyridin-2-yl)-5-(quinoxalin-6-yl)-1H-pyrazole-3-carboxyamide]
27 nM	Cc1cccc(-n2nc(C(=O)Nc3ccccc3F)cc2-c2ccc3ncoc3c2)n1 [Example 219, 5-(benzo[d]oxazol-6-yl)-N-(2-fluorophenyl)-1-(6-methylpyridin-2-yl)-1H-pyrazole-3-carboxyamide]

IC50	SMILES
< 100 nM	Cc1cccc(-n2nc(C(=O)Nc3ccccc3F)cc2-c2ccc3nccnc3c2)n1 [Example 185, N-(2-fluorophenyl)-1-(6-methylpyridin-2-yl)-5-(quinoxalin-6-yl)-1H-pyrazole-3-carboxyamide]
4.2 nM	Cc1cccc(-n2nc(C(=O)Nc3ccc(NS(=O)(=O)C4CC4)cc3)cc2-c2ccc3ncsc3c2)n1 [Example 55, 5-(benzo[d]thiazol-6-yl)-N-(4-(cyclopropanesulfonamido)phenyl)-1-(6-methylpyridin-2-yl)-1H-pyrazole-3-carboxyamide]
~10 nM	Cc1cccc(-n2nc(C(=O)Nc3ccc(F)c(F)c3)cc2-c2ccc3ncnn3c2)n1 [Example 136, 5-([1,2,4]triazolo[1,5-α]pyridin-6-yl)-N-(3,4-difluorophenyl)-1-(6-methylpyridin-2-yl)-1H-pyrazole-3-carboxyamide]
3.7 nM	Cc1cccc(-n2nc(C(=O)Nc3ccc(NC4CCS(=O)(=O)C4)cc3)cc2-c2ccc3ncsc3c2)n1 (centres unmarked) [Example 63, 5-(benzo[d]thiazol-6-yl)-N-(4-((1,1-dioxidotetrahydrothiophen-3-yl)amino)phenyl)-1-(6-methylpyridin-2-yl)-1H-pyrazole-3-carboxyamide]
10 to 100 nM	CC(=O)c1ccc(NC(=O)c2cc(-c3ccc4nccnc4c3)n(-c3cccc(C)n3)n2)cc1 [Example 178, N-(4-acetylphenyl)-1-(6-methylpyridin-2-yl)-5-(quinoxalin-6-yl)-1H-pyrazole-3-carboxyamide]
~100 nM	COc1ccc(NC(=O)c2cc(-c3ccnc4ccccc34)n(-c3cccc(C)n3)n2)c(F)c1 [Example 216, N-(2-fluoro-4-methoxyphenyl)-1-(6-methylpyridin-2-yl)-5-(quinolin-4-yl)-1H-pyrazole-3-carboxyamide]
~10 nM	CC(=O)c1cccc(NC(=O)c2cc(-c3ccc4ncsc4c3)n(-c3cccc(C)n3)n2)c1 [Example 23, 5-(benzo[d]thiazol-6-yl)-N-(3-acetylphenyl)-1-(6-methylpyridin-2-yl)-1H-pyrazole-3-carboxyamide]
36 nM	COc1ccc(NC(=O)c2cc(-c3ccnc4ccccc34)n(-c3cccc(C)n3)n2)cn1 [Example 212, N-(6-methoxypyridin-3-yl)-1-(6-methylpyridin-2-yl)-5-(quinolin-4-yl)-1H-pyrazole-3-carboxyamide]
3.5 nM	Cc1cccc(-n2nc(C(=O)Nc3ccc(NC4CC4)cc3)cc2-c2ccc3ncsc3c2)n1 [Example 88, 5-(benzo[d]thiazol-6-yl)-N-(4-(cyclopropylamino)phenyl)-1-(6-methylpyridin-2-yl)-1H-pyrazole-3-carboxyamide]
~100 nM	COc1ccccc1NC(=O)c1cc(-c2ccc3nccnc3c2)n(-c2cccc(C)n2)n1 [Example 166, N-(2-methoxyphenyl)-1-(6-methylpyridin-2-yl)-5-(quinoxalin-6-yl)-1H-pyrazole-3-carboxyamide]
> 100 nM	Cc1cccc(-n2nc(C(=O)NCc3ccc(Cl)cc3)cc2-c2ccc3nccnc3c2)n1 [Example 199, N-(4-chlorobenzyl)-1-(6-methylpyridin-2-yl)-5-(quinoxalin-6-yl)-1H-pyrazole-3-carboxyamide]
10 to 100 nM	Cc1cccc(-n2nc(C(=O)Nc3ccc(OC(F)(F)F)cc3)cc2-c2ccc3ncsc3c2)n1 [Example 5, 5-(benzo[d]thiazol-6-yl)-1-(6-methylpyridin-2-yl)-N-(4-(trifluoromethoxy)phenyl)-1H-pyrazole-3-carboxyamide]
10 to 100 nM	Cc1cccc(-n2nc(C(=O)Nc3ccc(N(C)C)cc3)cc2-c2ccc3ncsc3c2)n1 [Example 13, 5-(benzo[d]thiazol-6-yl)-N-(4-(dimethylamino)phenyl)-1-(6-methylpyridin-2-yl)-1H-pyrazole-3-carboxyamide]
5.6 nM	Cc1cccc(-n2nc(C(=O)Nc3ccc(S(=O)(=O)NCC(F)(F)F)cc3)cc2-c2ccc3ncsc3c2)n1 [Example 58, 5-(benzo[d]thiazol-6-yl)-1-(6-methylpyridin-2-yl)-N-(4-(N-(2,2,2-trifluoroethyl)sulfamoyl)phenyl)-1H-pyrazole-3-carboxyamide]
9.1 nM	CCCCNc1ccc(NC(=O)c2cc(-c3ccc4ncsc4c3)n(-c3cccc(C)n3)n2)cc1 [Example 87, 5-(benzo[d]thiazol-6-yl)-N-(4-(butylamino)phenyl)-1-(6-methylpyridin-2-yl)-1H-pyrazole-3-carboxyamide]
10 to 100 nM	Cc1cccc(-n2nc(C(=O)Nc3cccc(Cl)c3F)cc2-c2ccc3ncnn3c2)n1 [Example 138, 5-([1,2,4]triazolo[1,5-α]pyridin-6-yl)-N-(3-chloro-2-fluorophenyl)-1-(6-methylpyridin-2-yl)-1H-pyrazole-3-carboxyamide]
